Values after ≈ are worked out from the molar mass of the structure shown.
What was measured:
[1] = system: Aspergillus niger; experiment: Antifungal activity against Aspergillus niger MTCC 282 assessed as growth inhibition by broth microdilution method; format: functional
[2] = system: Candida albicans; experiment: Antifungal activity against Candida albicans MTCC 227 assessed as growth inhibition by broth microdilution method; format: functional
[3] = system: Aspergillus clavatus; experiment: Antifungal activity against Aspergillus clavatus MTCC 1323 assessed as growth inhibition by broth microdilution method; format: functional
[4] = system: Streptococcus pyogenes; experiment: Antibacterial activity against Streptococcus pyogenes MTCC 443 assessed as growth inhibition by broth microdilution method; format: functional
[5] = system: Leishmania braziliensis; experiment: Antileishmanial activity against promastigote stage of Leishmania braziliensis H3 assessed as parasite growth inhibition after 72 hrs by Neubauer chamber counting method; format: functional, organism-based
[6] = system: Pseudomonas aeruginosa; experiment: Antibacterial activity against Pseudomonas aeruginosa MTCC 2488 assessed as growth inhibition by broth microdilution method; format: functional
[7] = system: Candida albicans; experiment: Potency index, ratio of griseofulvin MIC to compound MIC for Candida albicans MTCC 227; format: functional
[8] = system: Staphylococcus aureus; experiment: Antibacterial activity against Staphylococcus aureus MTCC 96 assessed as growth inhibition by broth microdilution method; format: functional
[9] = system: Mycobacterium tuberculosis; experiment: Antitubercular activity against Mycobacterium tuberculosis H37Rv assessed as growth inhibition after 12 to 28 days by Lowenstein-Jensen agar method; format: functional; details: for MIC: Mycobacterium tuberculosis, H37Rv
[10] = system: Escherichia coli; experiment: Antibacterial activity against Escherichia coli MTCC 442 assessed as growth inhibition by broth microdilution method; format: functional
[11] = Leishmania braziliensis, H3, 72 h, read-out: IC50

Compound	MIC99 [1] [µg/mL]	MIC99 [2] [µg/mL]	MIC99 [3] [µg/mL]	MIC99 [4] [µg/mL]	IC50 [5, 11] [µM]	MIC99 [6] [µg/mL]	Ratio [7]	MIC99 [8] [µg/mL]	growth inhibition (GI) [9] [%]	MIC [9] [µg/mL]	MIC99 [10] [µg/mL]	IC50 [5]
COC1=CC(=O)C[C@@H](C)[C@]12Oc1c(Cl)c(OC)cc(OC)c1C2=O [GRISEOFULVIN]	100	500	100	–	–	–	–	–	–	–	–	–
COc1ccc(C2CC(c3cccc([N+](=O)[O-])c3)=NN2)cc1 (stereo unspecified)	1000	250	1000	500	> 100	100	2	500	99	250 (≈ 841 µM)	62.5	–
O=C(/C=C/c1ccc2c(c1)OCO2)c1cccc([N+](=O)[O-])c1	1000	250	1000	250	–	250	2	250	99	250 (≈ 841 µM)	250	Not Active
CC1(C)S[C@@H]2[C@H](NC(=O)[C@H](N)c3ccccc3)C(=O)N2[C@H]1C(=O)O [AMPICILLIN]	–	–	–	100	–	100	–	250	–	–	100	–
O=C(/C=C/C=C/c1ccccc1)c1cccc([N+](=O)[O-])c1	1000	250	1000	125	–	100	2	125	97	1000 (≈ 3580 µM)	200	Not Active
COc1ccc(/C=C/C(=O)c2cccc([N+](=O)[O-])c2)cc1OC	> 1000	500	> 1000	200	> 100	200	–	200	98	500 (≈ 1600 µM)	100	–
CCOC(=O)C1C(=O)C=C(c2cccc([N+](=O)[O-])c2)CC1c1cc(OC)c(OC)c(OC)c1 (stereo unspecified)	> 1000	100	> 1000	200	–	200	–	200	99	250 (≈ 549 µM)	200	Not Active
COc1ccc(C2CC(c3cccc([N+](=O)[O-])c3)=NN2C(C)=O)c(OC)c1OC (stereo unspecified)	250	1000	250	250	–	100	–	250	99	250 (≈ 626 µM)	100	Not Active
CC(=O)N1N=C(c2cccc([N+](=O)[O-])c2)CC1c1ccc2ccccc2c1 (stereo unspecified)	> 1000	250	> 1000	100	–	250	2	100	98	1000 (≈ 2780 µM)	250	Not Active
CCOC(=O)C1C(=O)C=C(c2cccc([N+](=O)[O-])c2)CC1c1ccc2c(c1)OCO2 (stereo unspecified)	1000	500	1000	200	–	200	–	250	99	250 (≈ 611 µM)	125	Not Active
COc1cc(OC)c(C2CC(c3cccc([N+](=O)[O-])c3)=NN2C(C)=O)cc1OC (stereo unspecified)	250	1000	250	125	–	125	–	100	98	500 (≈ 1250 µM)	125	Not Active
COc1ccc(C2CC(c3cccc([N+](=O)[O-])c3)=NN2C(C)=O)cc1OC (stereo unspecified)	500	200	500	125	–	250	2	125	99	500 (≈ 1350 µM)	500	Not Active
CC(=O)N1N=C(c2cccc([N+](=O)[O-])c2)CC1c1ccc2c(c1)OCO2 (stereo unspecified)	500	500	500	250	–	200	–	250	99	250 (≈ 708 µM)	250	Not Active
CCOC(=O)C1C(=O)C=C(c2cccc([N+](=O)[O-])c2)CC1c1ccc(OC)cc1 (stereo unspecified)	> 1000	500	> 1000	500	–	200	–	250	98	500 (≈ 1260 µM)	100	Not Active
COc1cc(C2CC(c3cccc([N+](=O)[O-])c3)=NN2C(C)=O)cc(OC)c1OC (stereo unspecified)	500	250	500	250	–	200	2	250	99	12.5 (≈ 31.3 µM)	250	Not Active
COc1cc(OC)c(OC)cc1/C=C/C(=O)c1cccc([N+](=O)[O-])c1	1000	1000	1000	500	–	125	–	500	99	250 (≈ 728 µM)	125	Not Active
O=[N+]([O-])c1cccc(C2=NNC(c3ccc4c(c3)OCO4)C2)c1 (stereo unspecified)	1000	250	1000	125	–	200	2	100	98	500 (≈ 1610 µM)	100	Not Active
CO[C@H]1/C=C/O[C@@]2(C)Oc3c(C)c(O)c4c(O)c(c(/C=N/N5CCN(C)CC5)c(O)c4c3C2=O)NC(=O)/C(C)=C\C=C\[C@H](C)[C@H](O)[C@@H](C)[C@@H](O)[C@@H](C)[C@H](OC(C)=O)[C@@H]1C [RIFAMPIN]	–	–	–	–	–	–	–	–	98	40 (≈ 48.6 µM)	–	–
COc1ccc(C2CC(c3cccc([N+](=O)[O-])c3)=NN2C(C)=O)cc1 (stereo unspecified)	1000	1000	1000	250	–	250	–	250	99	250 (≈ 737 µM)	250	Not Active
COc1ccc(/C=C/C(=O)c2cccc([N+](=O)[O-])c2)cc1	200	1000	200	500	–	200	–	500	98	1000 (≈ 3530 µM)	200	Not Active
